PubChem BioAssay AID2305 (GlaxoSmithKline (GSK), 2010)

The molecules below were run on P. falciparum 3D7 growth, pLDH absorbance (assay: blood-stage malaria parasite growth potency – strain 3D7, dose response (AID 2305)).
CCCCCCCN1CC[C@@H](CCCc2ccnc3ccc(OCCCCN=C(N)NO)cc23)[C@@H](CC)C1 was tested, and the IC50 was 950 nM. CSc1ccc(NC(=O)Nc2cc(C)nc3ccccc23)cc1Br was tested, and the IC50 was 780 nM. In the case of CC(C)CCn1c(Sc2ccc(C#N)c([N+](=O)[O-])c2)nnc1-c1ccccc1Cl, the IC50 is reported as 1030 nM. COc1cc(Cc2cnc(N)nc2N)ccc1Oc1ccc(N)cc1 was tested, and the IC50 was 870 nM. With COc1ccc(Nc2nc(N3CCCC3)c3ccccc3n2)cc1 the IC50 was 750 nM. With COc1ccc(CCNCCCCCCNCCc2ccc(OC)c(OC)c2Cl)c(Cl)c1OC the IC50 was 900 nM. COc1ccc(-c2nc(-c3ccc([N+](=O)[O-])cc3)no2)cc1OC showed an IC50 of 410 nM. COc1ccc2nc3cc(Cl)ccc3c(NCCO)c2c1 showed an IC50 of 800 nM. For C=CCOc1ccc(-c2c(C)[nH]c(C)c(Br)c2=O)cc1, the IC50 was 280 nM. Work on COc1ccc(NC(=O)[C@H](CC(C)C)Nc2cc(C)nc(NCCc3ccccc3OC)n2)cc1 yielded an IC50 of 990 nM. CC1(C)[C@H]2CC[C@@H](CNc3nc(NCCc4cnc[nH]4)nc(Nc4ccc(Oc5ccccc5)cc4)n3)[C@@H]1C2 was tested, and the IC50 was 670 nM. COc1ccccc1C(C)NCC(=O)Nc1ccccc1Sc1ccccc1 (stereo not given) gave an IC50 of 1100 nM. With O=C(NCCN1CCCC1)c1ccc(-c2cccc(-c3nc4ccc(F)cc4[nH]3)c2)cc1 the IC50 was 770 nM. Work on COc1cccc2c(NN=Cc3cccc(Cl)c3)cc(C)nc12 yielded an IC50 of 710 nM. With COc1cccc(CNC(=O)c2cnc(N3CCN(c4ccncc4)CC3)c(Cl)c2)c1 the IC50 was 1150 nM. Cc1ccccc1C1=CCN(CCCN2c3ccccc3Sc3ccc(Cl)cc32)CC1 was tested, and the IC50 was 870 nM. CCOC(=O)c1[nH]c(-c2cc(Cl)nc(Cl)c2)nc1NC(=S)NCCCN1CCOCC1 gave an IC50 of 930 nM. For Cc1[nH]c(C)c(-c2ccc(OCc3cc(F)cc(F)c3)nc2)c(=O)c1Br, the IC50 was 100 nM. In the case of O=C(/C=C/c1ccc(Cl)c(Cl)c1)NCCCCCCN1CCCN(C(=O)Nc2cc(Cl)cc(Cl)c2)CC1, the IC50 is reported as 780 nM. With CCN(CCO)CCc1cccc(Nc2nccc(-c3c(-c4ccc(NC(=O)N(CC)CC)cc4)nn4ccccc34)n2)c1 the IC50 was 1110 nM. Molecule COc1ccc(Nc2nccc(N3CCC(NS(=O)(=O)c4ccc(NC(C)=O)cc4)C3)n2)cc1 (stereo not given) has an IC50 of 800 nM. For O=C(/C=C/c1ccc(F)cc1)NC1CCC(CCN2CCc3ccccc3CC2)CC1 (stereo not given), the IC50 was 1400 nM. For Cc1cc(CNC(=O)c2ccc(-c3ccc(-c4nc5ccc(C(F)(F)F)cc5[nH]4)s3)cc2)on1, the IC50 was 730 nM. For CCCNCc1ccc(-c2ccc(CN(CCOC)C(=O)c3cscn3)cc2)nc1, the IC50 was 180 nM. In the case of CS(=O)(=O)c1ccc(-c2cnc(N)c(-c3cccc(CO)c3)c2)cc1, the IC50 is reported as 940 nM. Molecule O=C(NCc1ccccc1)c1ncn(CCCN2CCC(N3CCCC3)CC2)c1-c1ccc(Cl)c(Cl)c1 has an IC50 of 1120 nM. CCN(CCCN1CCCCC1)c1cc(C)nc(Nc2ccc(OC)cc2)n1 was tested, and the IC50 was 620 nM. O=C(CN(c1cccc(C(F)(F)F)c1)S(=O)(=O)c1ccc(Cl)cc1)NCCC(c1ccccc1)c1ccccc1 gave an IC50 of 740 nM. CN(C)C1CCN(Cc2ccc(N3CCN(Cc4cccc5[nH]ccc45)CC3)nc2)CC1 gave an IC50 of 1530 nM. Molecule O=C(NC1CCN(Cc2ccc(O)cc2)CC1)c1ccc(Cl)c(Cl)c1 has an IC50 of 1180 nM. With CO/C=C(/C(=O)OC)c1ccccc1Oc1cc(Oc2ccccc2C#N)ncn1 the IC50 was 40 nM. With Nc1c2c(nc3cc(NC(=O)c4ccc([N+](=O)[O-])cc4)ccc13)CCCC2 the IC50 was 470 nM. Work on COc1cc(-c2nnc(SCC(=O)Nc3cc(C)on3)n2C)cc(OC)c1O yielded an IC50 of 180 nM. Molecule O=C(/C=C/c1ccc(Cl)c(Cl)c1)NCCCCCN1CCC(NC(=O)Nc2ccc(F)c(F)c2)CC1 has an IC50 of 840 nM. With Cc1cc(N[C@@H](CC(C)C)C(=O)NCCOc2ccccc2)nc(Nc2ccccc2)n1 the IC50 was 1110 nM. For Cc1cc(NN=Cc2ccc(F)cc2)c2cc(C(F)(F)F)ccc2n1, the IC50 was 230 nM. O=C(N[C@@H](Cc1ccccc1)CN1CCC(Oc2ccc(F)cc2)CC1)c1ccc(OCCCN2CCCCC2)cc1 gave an IC50 of 890 nM. COc1cc2c(c(OC)c1OC)C[C@H]1c3c(cc4c(c3-2)OCO4)CCN1C was tested, and the IC50 was 970 nM. Cc1cnc(NCC2CCCCC2)nc1N[C@@H](CC(C)C)C(=O)Nc1ccccc1 showed an IC50 of 870 nM. In the case of COc1cc2nc(NCc3cccc(CNC(=O)c4ccc(-c5ccc(C(C)=O)cc5)cc4)c3)nc(N)c2cc1OC, the IC50 is reported as 120 nM. In the case of O=C(NCc1cccc(OC(F)(F)F)c1)c1cnc2c(c1)nc(-c1cnc(-c3ccccc3)[nH]1)n2CCc1cnc[nH]1, the IC50 is reported as 680 nM. Cc1nc2ccc3ccc(CNc4ccc5c(c4)CN([C@@H](CCC(=O)O)C(=O)O)C5=O)cc3c2c(=O)[nH]1 gave an IC50 of 160 nM. COc1ccc2c(NN=Cc3ccccc3Cl)ccnc2c1 gave an IC50 of 620 nM. Molecule COc1ccccc1-n1c(-c2ccc3ccccc3c2)csc1=NC(=O)c1ccccc1 has an IC50 of 200 nM. Molecule CC(C)(C)COc1ccc2c(N)n[nH]c2c1 has an IC50 of 790 nM. With COc1ccccc1-c1nc2c(ccc3nc(N)nc(N)c32)[nH]1 the IC50 was 180 nM. For CC[C@H]1CN2CC[C@H]1C[C@@H]2[C@@H](O)c1ccnc2ccccc12, the IC50 was 280 nM. For Fc1ccc(CN2CCN(c3ncnc4cc(-c5ccccc5)sc34)CC2)cc1, the IC50 was 1020 nM. Cc1cccc2[nH]c(-c3ccc(-c4ccc(CNCc5cnn(-c6ccccc6)n5)cc4)cc3)nc12 gave an IC50 of 430 nM. Work on O=C(NCCCCN1CCC(O)(c2ccc3c(c2)OCO3)CC1)c1ccc(NC(=O)c2ccc(Cl)cc2)cc1 yielded an IC50 of 1180 nM.
